Laboratory results published in publication PMC9150179, “Clerodane Diterpenes from Casearia corymbosa as Allosteric GABAA Receptor Modulators” (Journal of Natural Products, 2022).
pEC50: −log10 of the molar value.

Columns and labels:
[1] = molecular target: GABAA receptor with the α1β2γ2 subunit composition (Homo sapiens, UniProt P14867+P18507+P47870); assay: FLIPR assay on CHO cells stably expressing GABAA receptors; assay type: cell-based; settings: for % activation at single concentration: 20 μM compound, 200 μM GABA = 100%
Protocol: Chinese hamster ovary (CHO) cells stably expressing the GABAA receptor with the α1β2γ2 subunit composition were passaged following an established protocol.[15],[16] The Chinese hamster ovary (CHO) cell line stably expressing the α1β2γ2 GABAA receptor subtype was cloned by B’SYS. Cells were cultured in a DMEM F-12 nutrient mixture supplemented with 10% FBS and 1% penicillin/streptomycin, under antibiotic pressure with 200 μg/mL of hygromycin B, 5 μg/mL of puromycin, and 100 μg/mL of zeocin. Cells were incubated in humidified air at 37 °C and 5% CO2, until 80–90% cell confluency. The passage numbers used in this study were from 10 to 30. Briefly, cells of ca. 80–90% confluency were seeded in a 96-well black-walled plate at a density of 60 000 cells/well in 100 μL of culture medium. The plate was incubated in humidified air at 37 °C and 5% CO2 for 24 h to allow cells to adhere. Then, 100 μL of FLIPR red dye solution (10.4 mL of assay buffer and one vial of red FLIPR assay reagent) was added to each well. The plate was further incubated for 30 min to allow the dye to penetrate into the cell membrane (assay plate). During the incubation time, a compound plate (clear 96-well plate) with controls, extracts, microfractions, compounds, and blanks was prepared (200 μL/well). Test solutions of extracts, microfractions, and compounds were prepared in buffer (consisting of 10% HBSS and 2% HEPES in sterilized H2O) and DMSO.
For the extract library screening, 2 μL of a 10 mg/mL DMSO stock solution of the extracts was added to 198 μL of buffer and transferred into the compound plate. The final test concentration for extracts was 20 μg/mL, with a final DMSO concentration in the assay of 0.1%. For extracts tested, active (>35% potentiation) serial dilutions were prepared from the stock solution to obtain final test concentrations of 0.16, 0.31, 0.63, 1.25, 2.50, 5.00, 10.00, and 20.00 μg/mL.
To test the pure compounds, stock solutions of 20 mM in DMSO were prepared. Compounds were assayed at a final concentration range of 0.16 to 20.00 μM (8× dilution series) or alternatively from 0.01 to 20.00 μM (12× dilution series). Aliquots of 200 μL from each dilution were transferred into wells of the compound plate and tested.
A series of controls was included in each assay. GABA at 200 μM was used to represent 100% activation of the receptor, while GABA at 2 μM represented the minimum activation (EC10). The positive control was diazepam at 20 μM in the presence of GABA at 2 μM, and buffer with 0.1% DMSO was used as a blank. GABA solutions (2 and 200 μM) were prepared from a 100 mM stock solution. In order to achieve a final test concentration of 20 μM diazepam in the assay plate, a 100 μM working solution was prepared from a stock solution (1 mg/mL in MeOH).
All test solutions were placed in the appropriate position in the compound plate (200 μL). Right after the final incubation period of the assay plate, the compound and assay plates were placed into a FlexStation 3 (Molecular Devices). The FlexStation parameters used in this study were as previously published.[14] Fluorescence was recorded for 500 s. For the first 25 s, the background fluorescence of the assay plate was measured (background signal). At 25 s, 50 μL of the test solutions (dilutions from compounds, extracts, microfractions, diazepam, and blanks) was transferred from the compound plate into the assay plate. The fluorescence was then recorded until 295 s. At 295 s, 25 μL of the GABA solutions (final concentration of 2 or 200 μM) was transferred into each well of the assay plate, and fluorescence was recorded until 500 s. The change in fluorescence intensity measured between 270 and 330 s was used for the calculation of percentage activation.

GABAA receptors α1β2 = molecular target: T1, GABAA receptors α1β2 (Homo sapiens, UniProt P14867+P47870); assay: Two-microelectrode voltage clamp assay with Xenopus laevis oocytes (α1β2); assay type: cell-based; settings: α1β2, in the presence of GABA EC3–7, n = 3
T1 construct: expressed in transfected cells; host or cells: Xenopus laevis oocytes, cRNA injection
T1 sequence (P14867 28-456): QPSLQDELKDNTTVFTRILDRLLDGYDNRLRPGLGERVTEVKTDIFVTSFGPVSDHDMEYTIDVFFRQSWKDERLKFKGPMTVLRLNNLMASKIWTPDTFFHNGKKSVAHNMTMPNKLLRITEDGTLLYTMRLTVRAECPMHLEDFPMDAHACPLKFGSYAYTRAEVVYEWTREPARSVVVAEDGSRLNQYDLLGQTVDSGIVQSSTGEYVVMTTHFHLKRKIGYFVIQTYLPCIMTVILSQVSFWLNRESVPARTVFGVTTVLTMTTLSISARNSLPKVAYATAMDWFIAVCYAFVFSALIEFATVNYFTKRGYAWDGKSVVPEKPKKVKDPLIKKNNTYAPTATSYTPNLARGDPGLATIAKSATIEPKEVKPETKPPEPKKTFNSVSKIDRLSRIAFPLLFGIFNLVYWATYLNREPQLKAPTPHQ
T1 sequence (P47870 25-512 limits assumed): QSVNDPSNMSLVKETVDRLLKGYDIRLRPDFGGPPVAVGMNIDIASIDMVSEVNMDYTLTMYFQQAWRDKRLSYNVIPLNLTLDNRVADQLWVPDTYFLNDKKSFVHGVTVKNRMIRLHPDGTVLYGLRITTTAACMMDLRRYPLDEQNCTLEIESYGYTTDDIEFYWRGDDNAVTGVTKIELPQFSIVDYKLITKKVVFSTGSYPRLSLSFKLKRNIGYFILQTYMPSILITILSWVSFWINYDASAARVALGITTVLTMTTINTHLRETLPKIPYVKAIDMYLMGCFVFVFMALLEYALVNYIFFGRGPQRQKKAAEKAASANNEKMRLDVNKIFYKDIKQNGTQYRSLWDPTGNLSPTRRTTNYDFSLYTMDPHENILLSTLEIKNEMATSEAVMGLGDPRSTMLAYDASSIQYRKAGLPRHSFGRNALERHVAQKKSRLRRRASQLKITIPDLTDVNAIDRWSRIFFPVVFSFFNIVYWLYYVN
Protocol: Recombinant GABAA receptors (α1β2γ2s and α1β2) were expressed in X. laevis oocytes by cRNA injection, as previously described.[37] Two-microelectrode voltage clamp measurements were performed between days 1 and 5 after injection of cRNA of the respective subunits, using a TURBO TEC 03X amplifier (npi Electronic) at a holding potential of −70 mV and pCLAMP 10 data acquisition software (Molecular Devices). The bath solution contained 90 mM NaCl, 1 mM KCl, 1 mM MgCl2, 1 mM CaCl2, and 5 mM HEPES (pH 7.4), and the electrode filling solution contained 2 M KCl. Test solutions (100 μL) were applied to the oocytes at a speed of 300 μL/sec by means of the ScreeningTool (npi electronic) automated fast perfusion system. GABA EC3–7 was determined through a concentration–response experiment with GABA. A stock solution of compound 8 (100 mM) in DMSO was diluted with a bath solution containing GABA EC3–7 to obtain appropriate working solutions according to a validated protocol. Enhancement of the IGABA was defined as (I(GABA+Comp)/IGABA) – 1, where I(GABA+Comp) is the current response in the presence of a given compound, and IGABA is the control of the GABA-induced chloride current. Emax reflects the maximal IGABA enhancement. […]

GABAA receptors α1β2γ2S = molecular target: T2, GABAA receptors α1β2γ2S (Homo sapiens, UniProt P14867+P18507+P47870); assay: Two-microelectrode voltage clamp assay with Xenopus laevis oocytes (α1β2γ2S); assay type: cell-based
T2 construct: expressed in transfected cells; host or cells: Xenopus laevis oocytes, cRNA injection
Protocol: Recombinant GABAA receptors (α1β2γ2s and α1β2) were expressed in X. laevis oocytes by cRNA injection, as previously described.[37] Two-microelectrode voltage clamp measurements were performed between days 1 and 5 after injection of cRNA of the respective subunits, using a TURBO TEC 03X amplifier (npi Electronic) at a holding potential of −70 mV and pCLAMP 10 data acquisition software (Molecular Devices). The bath solution contained 90 mM NaCl, 1 mM KCl, 1 mM MgCl2, 1 mM CaCl2, and 5 mM HEPES (pH 7.4), and the electrode filling solution contained 2 M KCl. Test solutions (100 μL) were applied to the oocytes at a speed of 300 μL/sec by means of the ScreeningTool (npi electronic) automated fast perfusion system. GABA EC3–7 was determined through a concentration–response experiment with GABA. A stock solution of compound 8 (100 mM) in DMSO was diluted with a bath solution containing GABA EC3–7 to obtain appropriate working solutions according to a validated protocol. Enhancement of the IGABA was defined as (I(GABA+Comp)/IGABA) – 1, where I(GABA+Comp) is the current response in the presence of a given compound, and IGABA is the control of the GABA-induced chloride current. Emax reflects the maximal IGABA enhancement. Concentration–response curves were generated, and the data were fitted by nonlinear regression analysis using Origin Software (OriginLab Corporation, USA) and are given as the means ± SEM of at least three oocytes from ≥2 batches. Diazepam (Sigma) and flumazenil (Sigma-Aldrich) were used as positive controls at 2 μM.

GABAA receptors = system: GABAA receptors; set-up: method as in PMID 17585957; settings: Xenopus oocyte assay; cited from earlier work

GABAA receptor with the α1β2γ2 subunit composition, sequence (P18507 40-475, one chain of several): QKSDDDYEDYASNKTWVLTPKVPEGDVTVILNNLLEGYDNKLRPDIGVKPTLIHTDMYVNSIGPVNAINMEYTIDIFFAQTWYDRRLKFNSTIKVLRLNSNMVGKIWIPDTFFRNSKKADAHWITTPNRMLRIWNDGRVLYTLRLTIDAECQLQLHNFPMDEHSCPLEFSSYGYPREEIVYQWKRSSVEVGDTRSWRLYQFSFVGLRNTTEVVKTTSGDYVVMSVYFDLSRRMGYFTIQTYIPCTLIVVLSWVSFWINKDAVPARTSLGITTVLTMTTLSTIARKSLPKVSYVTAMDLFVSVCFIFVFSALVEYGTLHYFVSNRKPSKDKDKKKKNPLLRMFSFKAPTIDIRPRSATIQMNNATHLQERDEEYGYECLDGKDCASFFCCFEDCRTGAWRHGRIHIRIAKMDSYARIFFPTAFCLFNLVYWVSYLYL
T2 sequence (P18507 40-467 isoform P18507-1 limits assumed, one chain of several): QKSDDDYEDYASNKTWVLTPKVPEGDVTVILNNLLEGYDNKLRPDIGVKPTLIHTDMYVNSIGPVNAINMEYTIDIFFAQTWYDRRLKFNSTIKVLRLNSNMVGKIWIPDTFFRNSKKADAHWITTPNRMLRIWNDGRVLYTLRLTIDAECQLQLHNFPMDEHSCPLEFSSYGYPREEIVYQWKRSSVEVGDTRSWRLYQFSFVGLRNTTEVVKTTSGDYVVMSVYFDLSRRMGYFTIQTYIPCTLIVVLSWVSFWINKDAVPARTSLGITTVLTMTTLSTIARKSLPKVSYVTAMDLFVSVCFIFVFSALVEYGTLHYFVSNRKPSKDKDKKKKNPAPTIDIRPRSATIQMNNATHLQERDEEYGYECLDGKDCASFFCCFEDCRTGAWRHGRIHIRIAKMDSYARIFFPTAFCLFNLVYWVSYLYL

Molecule: CCO [ethanol, reference compound]
- activation of the GABA signal ([1]; concentrations up to 640 mM, in presence of 2 μM GABA): no activation

Molecule: pregnenolone sulfate [PREGS, reference compound]
- effect of PREGS on GABA signal with 8, highest concentration ([1]; 8 (10 μM) with PREGS 10 μM, 2 μM GABA): decrease of the GABA signal
- effect of PREGS on GABA signal with 8, lower concentrations ([1]; 8 (10 μM) with PREGS at lower concentrations (<10 μM), 2 μM GABA): no effect
- effect on activation by allopregnanolone ([1]; allopregnanolone 0.5 μM, PREGS 0.001–100 μM): abrogated

Molecule: C=C/C(C)=C/C[C@]1(C)[C@H](C)C[C@H](OC)[C@]23C(=C[C@H](OC(=O)CC)C[C@@H]12)[C@@H](OC(C)=O)O[C@H]3OC(C)=O [Compound 9, (2R)-Propanoyloxy-(6R)-methoxy-18R,19S-diacetoxyzuelanin]
- % activation at single concentration ([1]; in the presence of 2 μM GABA): no discernible activity

Molecule: C=C/C(C)=C/C[C@]1(C)[C@H](C)C[C@H](O)[C@]23C(=C[C@H](OC(=O)C(=C)C)C[C@@H]12)[C@@H](OC(C)=O)O[C@H]3OC(C)=O [Compound 4, Corymbotin F]
- % activation at single concentration ([1]; in the presence of 2 μM GABA): no discernible activity

Molecule: C=C/C(C)=C/C[C@]1(C)[C@H](C)C[C@H](O)[C@]23C(=C[C@H](OC(=O)C(=C)C)C[C@@H]12)[C@@H](OC)O[C@H]3OC(C)=O [Compound 6, (2R)-2-Methylpropenoyloxy-6S-hydroxy-18S-methoxy-19S-acetoxyzuelanin]
- % activation at single concentration ([1]; in the presence of 2 μM GABA): no discernible activity

Molecule: C=C/C(C)=C/C[C@]1(C)[C@H](C)C[C@H](O)[C@@]2(C=O)C(C=O)=C[C@@H](OC(C)=O)C[C@@H]12 [Compound 1, (5S,8R,9R,10S)-2S-Acetoxy-6S-hydroxyclerod-3,12,14-trien-18,19-dial]
- % activation at single concentration ([1]; in the presence of 2 μM GABA): ~40%

Molecule: C=C/C(C)=C/C[C@]1(C)[C@H](C)C[C@H](O)[C@]23C(=C[C@@H](OC(C)=O)C[C@@H]12)[C@@H](OC(C)=O)O[C@H]3OC(C)=O [Compound 3, Corymbotin D]
- % activation at single concentration ([1]; in the presence of 2 μM GABA): significantly enhanced

Molecule: CCOC(=O)c1ncn2c1CN(C)C(=O)c1cc(F)ccc1-2 [flumazenil, reference compound]
- effect on potentiation of the GABA signal by diazepam ([1]; diazepam 2 μM, flumazenil 0.001–100 μM, concentration-dependent): abolished

Molecule: C=C/C(C)=C/C[C@]1(C)[C@H](C)C[C@H](OC)[C@@]2(C=O)C(C=O)=C[C@@H](OC(C)=O)C[C@@H]12 [Compound 5, (5S,8R,9R,10S)-2S-Acetoxy-6S-methoxyclerod-3,12,14-trien-18,19-dial]
- % activation at single concentration ([1]; in the presence of 2 μM GABA): ~40%

Molecule: C=C/C(C)=C/C[C@]1(C)[C@H](C)C[C@H](OC)[C@]23C(=C[C@@H](OC(C)=O)C[C@@H]12)[C@@H](OC(C)=O)O[C@H]3OC(C)=O [Compound 8, Corimbotin A]
- pEC50 (GABAA receptors α1β2; read-out: EC50, potentiation of GABA-induced chloride currents (IGABA)): 4.24
- Emax (GABAA receptors α1β2; read-out: Emax, maximal IGABA enhancement): 534%
- % activation at single concentration ([1]; in the presence of 2 μM GABA): significantly enhanced
- activation by 8 in the presence of flumazenil ([1]; 8 (5 μM) with flumazenil 0.001–10 μM, 2 μM GABA): not abrogated
- combination with allopregnanolone ([1]; 8 (0.5–4.0 μM) with allopregnanolone (0.25 μM), 2 μM GABA): additive effects
- combination with diazepam ([1]; 8 (0.5–8 μM) with diazepam (2 μM), 2 μM GABA): additive effect
- potentiation of the GABA signal by etazolate in combination with 8 ([1]; etazolate (2 μM) with 8 (0.5–8 μM), 2 μM GABA): further increased
- IGABA stimulation by 8 in the presence of flumazenil (GABAA receptors α1β2γ2S; 8 (50 μM), flumazenil (2 μM)): not prevented
- pEC50 (GABAA receptors α1β2γ2S; α1β2γ2S, in the presence of GABA EC3–7, n = 3, read-out: EC50, potentiation of GABA-induced chloride currents (IGABA)): 4.36
- Emax (GABAA receptors α1β2γ2S; α1β2γ2S, in the presence of GABA EC3–7, n = 3, read-out: Emax, maximal IGABA enhancement): 809%

Molecule: C=C/C(C)=C/CC1(C)C(C)CC(OC(C)=O)C23C(=CC(OC(C)=O)CC12)C(OC(C)=O)OC3OC(C)=O [Compound 7, (2S,6S,18S,19S)-Tetraacetoxyzuelanin]
- % activation at single concentration ([1]; in the presence of 2 μM GABA): significantly enhanced
- pEC50 ([1]; in the presence of 2 μM GABA, CHO cells α1β2γ2, read-out: EC50, positive allosteric modulation of the GABA signal): 5.34

Molecule: CN1C(=O)CN=C(c2ccccc2)c2cc(Cl)ccc21 [diazepam]
- maximal potentiation (Emax) (GABAA receptors): ~200%

Molecule: C=C/C(C)=C/C[C@]1(C)[C@H](C)C[C@H](O)[C@]23C(=C[C@@H](OC(C)=O)C[C@@H]12)[C@@H](OC)O[C@H]3OC(C)=O [Compound 2, Graveospene H]
- % activation at single concentration ([1]; in the presence of 2 μM GABA): no discernible activity
